Holding throughout (format): in vitro ADME
Holding throughout (parameters): key to Function (SN-38G formation versus *1 allele): High: no significant difference in activity compared to *1 allele.; Low: significantly lower SN-38G formation versus *1 allele

One data set has as its target T1, UGT1A7*2 (Homo sapiens, UniProt Q9HAW7, N129K/R131K).
T1 construct: expressed in transfected cells
T1 sequence (Q9HAW7 26-530 N129K/R131K): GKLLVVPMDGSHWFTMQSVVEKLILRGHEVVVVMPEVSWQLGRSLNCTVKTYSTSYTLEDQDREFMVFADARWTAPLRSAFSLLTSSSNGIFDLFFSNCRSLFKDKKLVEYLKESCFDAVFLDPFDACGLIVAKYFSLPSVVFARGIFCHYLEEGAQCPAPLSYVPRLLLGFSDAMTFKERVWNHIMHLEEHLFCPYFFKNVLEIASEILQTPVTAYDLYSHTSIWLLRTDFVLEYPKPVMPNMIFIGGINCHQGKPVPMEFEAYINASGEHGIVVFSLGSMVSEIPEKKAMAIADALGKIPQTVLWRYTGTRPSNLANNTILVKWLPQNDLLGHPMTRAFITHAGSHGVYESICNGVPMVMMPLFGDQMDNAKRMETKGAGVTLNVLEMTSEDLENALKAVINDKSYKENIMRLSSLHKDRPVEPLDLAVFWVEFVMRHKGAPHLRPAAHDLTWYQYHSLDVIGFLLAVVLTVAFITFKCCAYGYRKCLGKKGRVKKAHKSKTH
In words: SN-38 glucuronidation by microsomes of HEK293 cells expressing UGT1A7*2. As for the experimental part:
(§1) Western blot analyses of UGT1A7 and UGT1A9 variants expressed in HEK293 cells were performed on microsomal proteins (10 μg) separated on a 10% SDS-polyacrylamide gel. After transferring the proteins, the membranes were probed with an anti-UGT1A RC-71 polyclonal antibody and with an anti-calnexin antibody. The relative levels of UGT1A9 (a) and UGT1A7 proteins (b) were determined by semi-quantitative densitometric analysis of the Enhanced chemiluminescence (ECL) image. The in vitro SN-38 activity was assessed using microsomal fractions prepared from HEK293 cells expressing the *1 and variant UGT1A9 (c) and UGT1A7 (d) alleles and incubated with 5 μM of SN-38 as described in Materials and Methods.
(§2) For the determination of Vmax and Km.

The target of a further data set is T2, UGT1A7*9 (Homo sapiens, UniProt Q9HAW7, G115S/N129K/R131K).
T2 construct: expressed in transfected cells
T2 sequence (Q9HAW7 26-530 G115S/N129K/R131K): T1 sequence (Q9HAW7 26-530 N129K/R131K) with G90S
In words: SN-38 glucuronidation by microsomes of HEK293 cells expressing UGT1A7*9. On the procedure:
as §1, §2

In a further data set the target is T3, UGT1A7*7 (Homo sapiens, UniProt Q9HAW7, E139D/N129K/R131K).
T3 construct: expressed in transfected cells
T3 sequence (Q9HAW7 26-530 N129K/R131K/E139D): T1 sequence (Q9HAW7 26-530 N129K/R131K) with E114D
In words: SN-38 glucuronidation by microsomes of HEK293 cells expressing UGT1A7*7. On the procedure:
as §1, §2

For a further data set, the target named is T4, UGT1A7*5 (Homo sapiens, UniProt Q9HAW7, G115S).
T4 construct: expressed in transfected cells
T4 sequence (Q9HAW7 26-530 G115S): T1 sequence (Q9HAW7 26-530 N129K/R131K) with G90S, K104N, K106R
In words: SN-38 glucuronidation by microsomes of HEK293 cells expressing UGT1A7*5. On the procedure:
as §1, §2

The mark [1] stands for this setting: range given for *5, *7 and *8 together.

Residue numbers refer to the chain shown, from its start.

With `CCc1c2c(nc3ccc(O)cc13)-c1cc3c(c(=O)n1C2)COC(=O)[C@]3(O)CC` [SN-38, 7-ethyl-10-hydroxycamptothecin], the “SN-38 glucuronidating activity of the allele (in words)” value on UGT1A7*2 was “highest”; at UGT1A7*9, “highest and low”; at UGT1A7*5, “low”. The “Function (SN-38G formation versus *1 allele)” value on UGT1A7*2 (in vitro experiments) was “High”; at UGT1A7*9 (in vitro experiments), “Low”; at UGT1A7*7 (in vitro experiments), “High”; at UGT1A7*5 (in vitro experiments) it was “Low”. In addition, the “lower rates of SN-38G formation compared to UGT1A7*1” value on UGT1A7*7 (setting [1]) and on UGT1A7*5 (setting [1]) was 38-76% in each case.

(Values after patent publication US20060183119A1, “Method for determining predisposition to a physiological reaction in a patient” (UNIVERSITE LAVAL, priority 2002, published 2006).)
